Data: ChEMBL document CHEMBL4024701, “Optimization and Structure-Activity Relationships of Phosphinic Pseudotripeptide Inhibitors of Aminopeptidases That Generate Antigenic Peptides” (J Med Chem, 2016)

Key:
[1] = molecular target: Leucyl-cystinyl aminopeptidase (Homo sapiens, UniProt Q9UIQ6); assay: Inhibition of IRAP (unknown origin) expressed in HEK 293S GnTI(-) cells by in vitro fluorimetric assay; assay type: cell-based
[2] = molecular target: T1, Leucyl-cystinyl aminopeptidase (Mus musculus) (UniProt Q8C129); assay: (§1) Inhibition of IRAP in C57Bl/6 mouse CD11b-positive dendritic cells assessed as reduction of IRAP-dependent cross-presentation activity by measuring IL2 level in CD8+ T-cells isolated from lymph nodes of Rag-1-/- C57Bl/6 OT-I mouse at 3 to 3333 nM pre-incubated for 60 mins followed by addition of ovalbumin measured after 6 hrs by sandwich ELISA
T1 sequence (whole entry): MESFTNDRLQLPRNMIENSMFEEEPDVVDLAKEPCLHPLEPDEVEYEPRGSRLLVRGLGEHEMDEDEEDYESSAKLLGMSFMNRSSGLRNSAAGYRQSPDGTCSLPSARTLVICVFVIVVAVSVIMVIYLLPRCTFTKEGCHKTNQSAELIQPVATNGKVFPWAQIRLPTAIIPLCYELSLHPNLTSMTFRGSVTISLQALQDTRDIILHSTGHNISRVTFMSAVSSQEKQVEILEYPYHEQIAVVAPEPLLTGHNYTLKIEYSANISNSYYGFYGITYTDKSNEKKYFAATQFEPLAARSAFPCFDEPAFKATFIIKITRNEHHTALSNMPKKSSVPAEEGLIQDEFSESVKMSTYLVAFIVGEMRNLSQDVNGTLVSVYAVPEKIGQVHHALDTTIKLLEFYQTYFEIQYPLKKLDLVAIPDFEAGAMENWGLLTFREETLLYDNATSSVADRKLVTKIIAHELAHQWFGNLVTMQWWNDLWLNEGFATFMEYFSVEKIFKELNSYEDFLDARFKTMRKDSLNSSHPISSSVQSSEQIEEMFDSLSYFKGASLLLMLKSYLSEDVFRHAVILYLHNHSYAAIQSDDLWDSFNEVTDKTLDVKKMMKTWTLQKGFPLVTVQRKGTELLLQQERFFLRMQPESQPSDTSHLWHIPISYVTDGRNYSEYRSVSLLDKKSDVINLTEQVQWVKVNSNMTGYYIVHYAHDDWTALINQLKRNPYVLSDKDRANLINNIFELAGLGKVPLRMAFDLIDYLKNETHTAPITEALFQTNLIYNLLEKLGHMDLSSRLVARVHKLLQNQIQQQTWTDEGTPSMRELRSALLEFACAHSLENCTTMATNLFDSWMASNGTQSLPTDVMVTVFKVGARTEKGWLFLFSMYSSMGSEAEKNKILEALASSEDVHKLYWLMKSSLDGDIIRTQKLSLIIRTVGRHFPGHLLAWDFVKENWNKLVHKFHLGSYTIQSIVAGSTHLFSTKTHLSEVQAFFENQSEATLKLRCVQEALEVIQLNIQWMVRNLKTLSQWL

[3] = (§2) Effect on cross-presentation activity of IRAP-/- knockdown C57Bl/6 mouse CD8alpha-positive T cells assessed as IL2 level in CD8+ T-cells isolated from lymph nodes of Rag-1-/- C57Bl/6 OT-I mouse at 3 to 1000 nmol/L pre-incubated for 60 mins followed by addition of ovalbumin measured after 6 hrs by sandwich ELISA assay; assay type: ADME, cell-based
[4] = as §2, with “CD11b-positive dendritic” for “CD8alpha-positive T”, “3.3 uM” for “3 to 1000 nmol/L”; assay type: ADME, cell-based; settings: cd11b-positive dendritic cell
[5] = molecular target: T1, Leucyl-cystinyl aminopeptidase (Mus musculus); assay: as §1, with “CD8 alpha-positive” for “CD11b-positive dendritic”
[6] = as §2, with “CD11b-positive dendritic” for “CD8alpha-positive T”; assay type: ADME, cell-based; settings: cd11b-positive dendritic cell
[7] = Effect on cross-presentation activity of IRAP-/- knockdown C57Bl/6 mouse CD8alpha-positive dendritic cells assessed as IL2 level in CD8+ T-cells isolated from lymph nodes of Rag-1-/- C57Bl/6 OT-I mouse at 3.3 uM pre-incubated for 60 mins followed by addition of ovalbumin measured after 6 hrs by sandwich ELISA assay; settings: cd8alpha-positive dendritic cell
[8] = molecular target: Endoplasmic reticulum aminopeptidase 1 (Homo sapiens, UniProt Q9NZ08); assay: Inhibition of ERAP1 (unknown origin) expressed in Hi5 cells by in vitro fluorimetric assay
Chain of Endoplasmic reticulum aminopeptidase 1 (Q9NZ08 whole entry): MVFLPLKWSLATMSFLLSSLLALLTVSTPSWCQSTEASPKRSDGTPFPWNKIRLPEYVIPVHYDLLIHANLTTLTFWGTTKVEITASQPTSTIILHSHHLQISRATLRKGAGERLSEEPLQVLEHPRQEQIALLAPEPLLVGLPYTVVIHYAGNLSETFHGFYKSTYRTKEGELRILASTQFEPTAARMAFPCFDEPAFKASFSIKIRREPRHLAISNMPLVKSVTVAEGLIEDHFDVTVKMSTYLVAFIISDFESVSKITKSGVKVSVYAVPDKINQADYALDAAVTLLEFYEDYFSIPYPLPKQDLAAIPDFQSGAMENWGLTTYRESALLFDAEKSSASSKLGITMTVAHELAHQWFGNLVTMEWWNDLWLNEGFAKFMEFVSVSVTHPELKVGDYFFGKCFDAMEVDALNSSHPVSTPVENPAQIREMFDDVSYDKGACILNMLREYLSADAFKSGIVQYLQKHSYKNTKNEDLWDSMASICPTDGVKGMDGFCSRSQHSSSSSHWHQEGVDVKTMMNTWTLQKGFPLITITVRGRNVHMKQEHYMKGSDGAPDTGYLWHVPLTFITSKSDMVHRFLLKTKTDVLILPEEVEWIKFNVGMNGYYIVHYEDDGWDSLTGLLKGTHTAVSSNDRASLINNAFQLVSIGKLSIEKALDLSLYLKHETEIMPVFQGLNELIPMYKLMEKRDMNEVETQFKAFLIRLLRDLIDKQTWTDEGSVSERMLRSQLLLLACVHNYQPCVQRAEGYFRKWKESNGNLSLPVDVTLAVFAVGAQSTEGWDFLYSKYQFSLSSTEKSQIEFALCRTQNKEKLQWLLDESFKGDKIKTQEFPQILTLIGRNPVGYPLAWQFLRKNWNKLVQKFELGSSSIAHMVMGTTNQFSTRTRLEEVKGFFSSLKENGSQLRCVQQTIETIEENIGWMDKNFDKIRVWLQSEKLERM

Chain of Leucyl-cystinyl aminopeptidase (Q9UIQ6 whole entry): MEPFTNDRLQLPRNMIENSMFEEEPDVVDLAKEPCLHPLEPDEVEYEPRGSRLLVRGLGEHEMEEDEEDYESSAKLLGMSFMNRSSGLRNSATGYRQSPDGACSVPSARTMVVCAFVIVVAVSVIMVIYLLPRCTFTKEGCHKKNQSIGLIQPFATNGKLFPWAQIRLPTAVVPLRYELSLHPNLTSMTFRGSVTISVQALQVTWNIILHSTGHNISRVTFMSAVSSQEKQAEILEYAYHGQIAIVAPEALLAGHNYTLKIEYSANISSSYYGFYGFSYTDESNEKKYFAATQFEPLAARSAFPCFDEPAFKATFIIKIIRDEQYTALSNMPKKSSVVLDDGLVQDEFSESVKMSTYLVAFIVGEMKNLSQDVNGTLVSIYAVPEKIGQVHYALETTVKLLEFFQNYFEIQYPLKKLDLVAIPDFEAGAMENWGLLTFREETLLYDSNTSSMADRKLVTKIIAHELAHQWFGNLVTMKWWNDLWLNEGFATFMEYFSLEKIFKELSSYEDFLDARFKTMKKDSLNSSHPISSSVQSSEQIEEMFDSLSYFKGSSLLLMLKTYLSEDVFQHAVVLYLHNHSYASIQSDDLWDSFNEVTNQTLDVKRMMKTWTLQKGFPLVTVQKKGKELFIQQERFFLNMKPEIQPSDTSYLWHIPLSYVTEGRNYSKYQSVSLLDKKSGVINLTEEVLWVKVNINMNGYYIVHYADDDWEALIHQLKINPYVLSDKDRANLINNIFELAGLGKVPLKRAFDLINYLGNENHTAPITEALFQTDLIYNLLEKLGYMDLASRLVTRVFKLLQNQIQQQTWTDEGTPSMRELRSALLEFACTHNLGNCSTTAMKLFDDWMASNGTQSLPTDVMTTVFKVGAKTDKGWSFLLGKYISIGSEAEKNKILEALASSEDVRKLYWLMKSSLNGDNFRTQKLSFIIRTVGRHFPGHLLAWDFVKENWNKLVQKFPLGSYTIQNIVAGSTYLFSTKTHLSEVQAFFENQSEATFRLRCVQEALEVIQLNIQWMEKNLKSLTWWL

C#CC[C@H](CP(=O)(O)[C@@H](N)CCc1ccccc1)C(=O)N[C@@H](Cc1ccccc1)C(N)=O
IC50 [1]: 0.002 µM

NC(=O)[C@H](Cc1ccccc1)NC(=O)[C@H](CC(c1ccccc1)c1ccccc1)CP(=O)(O)[C@@H](N)CCc1ccccc1
inhibition [2]: Dose-dependent effect
Activity [3]: Non-Toxic
Activity [4]: Toxic
inhibition [5]: Dose-dependent effect
Activity [6]: Non-Toxic
Activity [7]: Toxic

NC(=O)[C@H](Cc1ccccc1)NC(=O)[C@@H](Cc1cc(-c2ccccc2)cc(-c2ccccc2)c1)CP(=O)(O)[C@@H](N)CCc1ccccc1
IC50 [8]: > 100 µM

NC(=O)[C@H](Cc1ccccc1)NC(=O)[C@H](Cc1cc(-c2ccccc2)cc(-c2ccccc2)c1)CP(=O)(O)[C@@H](N)CCc1ccccc1
IC50 [8]: > 35 µM
